{
  "source": "patent US20160193291A1",
  "about": "“METHOD OF REGULATING NEURONAL AXON ELONGATION” (RIKEN, priority 2012, published 2016)",
  "format_in_all_cases": "cell-based, chick (Gallus gallus)",
  "key": {"[1]": {"tested_on": "growth cones of primary culture DRG neurons", "assay": "Endocytosis of Alexa Fluor dextran (macropinocytosis) in growth cones"}, "[2]": {"tested_on": "growth cones of DRG neurons", "assay": "Growth cone collapse assay (growth cone surface area)", "method": "Dissociated DRG neurons from embryonic day 7-9 chicks were cultured for at least 12 h in an F-12 medium (Invitrogen) containing 50 ng/ml NGF. […] Subsequently, the culture medium was changed to BSS buffer. […] In experiments using epoxomicin, the cells were treated with […] epoxomicin for 15 min before the addition of […] Sema3A.\nThe growth cone area was defined as a hand-like region extending from a distal part of a neurite to a growth cone neck whose width is equal to the width of the neurite. The width of each neurite was calculated by measuring the width of the neurite region at a location that was 30 μm apart from the distal part of each neurite. This calculation was adopted because the mean length of the control growth cone was less than 30 μm."}, "[3]": {"tested_on": "DRG neurons", "assay": "Neurite elongation (neurite length) of transfected DRG neurons", "settings": "15 min pretreatment with 10 μM EIPA"}, "[4]": {"tested_on": "Syx1B protein in growth cones", "assay": "Immunocytochemistry of Syx1B protein in growth cones", "settings": "for protein level of Syx1B normalized to that of SNAP25 in the growth cones: 10 min treatment", "method": "After Sema3A or vehicle treatment, the cells were fixed with 4% PFA for 1 h at 37° C., followed by permeabilization with 0.3% Triton X-100 in PBS for 2 min at a room temperature.\nThe cells were then immediately washed three times with a blocking solution (1% BSA and 0.1% Triton X-100 PBS), followed by incubation with the blocking solution for 1 h at a room temperature, and were then incubated in the presence of anti-Syx1B (0.5 μg/ml) and anti-synaptosomal-associated protein 25 (SNAP25) antibody (1:500 dilution, clone SM-81; Sternberger Monpclonals) for 2 h at a room temperature. Immunofluorescence signals were visualized by incubation with Alexa Fluor 488-labeled donkey anti-rabbit antibody (Invitrogen) and Alexa Fluor 594-labeled donkey anti-mouse antibody (Invitrogen). The integrated fluorescence intensity of Syx1B in the growth cones was normalized to that of the SNAP 25 protein."}, "[5]": {"settings": "15 min pretreatment with 10 μM EIPA"}, "[6]": {"settings": "15 min pretreatment with 100 μM EIPA"}},
  "data": [
    {"smiles": "CCN(c1nc(N)c(C(=O)N=C(N)N)nc1Cl)C(C)C", "note": "[EIPA, 5-(N-ethyl-N-isopropyl)amiloride]", "values": [
      {"measurement": "effect on Sema3A-induced uptake of Alexa Flour 594-dextran", "setting": "[1]; [5]", "value": "suppressed"},
      {"measurement": "effect on Syx1B knockdown-mediated accumulation of Alexa Fluor 594-dextran", "setting": "[1]; [5]", "value": "reversed"},
      {"measurement": "effect on neurotoxin C1-induced uptake of Alexa Fluor 594-dextran", "setting": "[1]; [6]", "value": "blocked"},
      {"measurement": "effect on Sema3A-induced growth cone collapse", "setting": "[2]; [5]", "value": "suppressed"},
      {"measurement": "effect on Syx1B knockdown-mediated growth cone collapse", "setting": "[2]; [5]", "value": "reversed"},
      {"measurement": "effect on neurotoxin C1-induced reduction in growth cone surface area", "setting": "[2]; [6]", "value": "blocked"},
      {"measurement": "effect on Syx1B knockdown-mediated reduced neurite elongation", "setting": "[3]", "value": "reversed"}
    ]},
    {"smiles": "O=c1cc(N2CCOCC2)oc2c(-c3ccccc3)cccc12", "note": "[LY294002, 2-(4-morpholinyl)-8-phenyl-1 (4H)-benzopyran-4-one]", "values": [
      {"measurement": "macropinocytosis in the growth cones", "setting": "[1]; 10 min LY294002 treatment", "value": "induced macropinocytosis"},
      {"measurement": "protein level of Syx1B normalized to that of SNAP25 in the growth cones", "setting": "[4]", "value": "significantly reduced"},
      {"measurement": "growth cone area", "setting": "[2]; 10 min LY294002 treatment", "value": "induced reduction in growth cone area"}
    ]},
    {"smiles": "CC[C@H](C)[C@H](NC(=O)[C@H]([C@@H](C)CC)N(C)C(C)=O)C(=O)N[C@H](C(=O)N[C@@H](CC(C)C)C(=O)[C@@]1(C)CO1)[C@@H](C)O", "note": "[epoxomicin]", "values": [
      {"measurement": "effect on Sema3A-induced suppression of Syx1B", "setting": "[4]; 1 μM epoxomicin", "value": "suppressed"}
    ]},
    {"smiles": "C/C1=C\\[C@H](C)C[C@H](C)OC(=O)C[C@H](c2ccc(O)cc2)NC(=O)[C@@H](Cc2c(Br)[nH]c3ccccc23)N(C)C(=O)[C@H](C)NC(=O)[C@@H](C)C1", "note": "[jasplakinolide]", "values": [
      {"measurement": "protein level of Syx1B normalized to that of SNAP25 in the growth cones", "setting": "[4]", "value": "not decreased"},
      {"measurement": "growth cone morphology", "setting": "[2]", "value": "induces growth cone collapse-like morphological changes"}
    ]}
  ]
}
